Assay results: the NIST ThermoML archive (doi:10.1021/je900689m)

Assay: xn = mol fraction of the nth substance listed
Conditions: 101 kPa, Liquid; for viscosity: Capillary tube (Ostwald / Ubbelohde) method

CC(C)Cc1ccccc1 [(2-methylpropyl)benzene] + CCOC=O
Conditions | mass density, 303.15 K [kg/m3] | mass density, 308.15 K [kg/m3] | mass density, 313.15 K [kg/m3] | speed of sound, 303.15 K [m/s] | speed of sound, 308.15 K [m/s] | speed of sound, 313.15 K [m/s] | viscosity, 303.15 K [mPa·s] | viscosity, 308.15 K [mPa·s] | viscosity, 313.15 K [mPa·s]
x2 = 0 | 844.4 | 841.1 | 837.6 | 1268 | 1252 | 1236 | 0.905 | 0.848 | 0.784
x2 = 0.1772 | 849.5 | 845.8 | 842.1 | 1248 | 1228 | 1208 | 0.788 | 0.726 | 0.666
x2 = 0.3217 | 854.9 | 851 | 847 | 1224 | 1204 | 1184 | 0.699 | 0.641 | 0.591
x2 = 0.4514 | 860.8 | 856.8 | 852.6 | 1200 | 1180 | 1160 | 0.625 | 0.573 | 0.529
x2 = 0.5631 | 866.8 | 862.7 | 858.3 | 1180 | 1160 | 1140 | 0.569 | 0.522 | 0.48
x2 = 0.6604 | 873.3 | 868.8 | 864.3 | 1164 | 1144 | 1124 | 0.52 | 0.479 | 0.442
x2 = 0.7444 | 879.7 | 875 | 870.3 | 1148 | 1128 | 1108 | 0.481 | 0.445 | 0.413
x2 = 0.8191 | 886.3 | 881.5 | 876.6 | 1132 | 1112 | 1092 | 0.45 | 0.415 | 0.384
x2 = 0.8852 | 893.1 | 888 | 883 | 1120 | 1100 | 1080 | 0.418 | 0.388 | 0.362
x2 = 0.9461 | 900.5 | 895.3 | 890 | 1104 | 1084 | 1064 | 0.394 | 0.369 | 0.347

c1ccccc1 [benzene] + CCOC=O
x2 = 0
Conditions | mass density [kg/m3] | speed of sound [m/s] | viscosity [mPa·s]
303.15 K | 867.6 | 1276 | 0.569
308.15 K | 863.2 | 1252 | 0.534
313.15 K | 858.9 | 1228 | 0.497
